“And” between values parts separate entries of the source, which are not always exact repeats. Equal entries are not always repeated.
Test system: 186277-243-T-J2-PDC complex spheroid viability
Assay: Anticancer human tumor 186277-243-T-J2-PDC patient-derived colon adenocarcinoma cell line growth inhibition [POLQ]
Details: for viability, T/C: stronger effect = lower value; active = viability on the fitted dose curve at most 10% of control; inactive = the rest
Description: Multicellular complex tumor spheroid response to Polymerase (POL) inhibitors (novobiocin, ART-558, RP6685) in combination with a variety of drugs and investigational agents in selected tumor cell lines
The POL inhibitors (novobiocin, ART-558, and RP6685) were evaluated both individually and in combination with standard of care and investigational anticancer small molecules within a complex spheroid model of solid tumors. . Complex spheroids include a stromal component modeled by human endothelial cells (HUVEC) and fibroblasts modeled by human mesenchymal stem cells (MSCs). The concentration ranges selected for each drug and investigational agent were based upon clinically achievable concentrations if the clinical Cmax of the agent was known.
Compounds. The drugs and investigational agents: novobiocin (NSC847541), ART-558 (NSC835418), RP-6685 (NSC848927), peposertib (NSC802822), ceralasertib (NSC780249), elimusertib (NSC800525), camonsertib (NSC841442), AZD-1390 (NSC803789), olaparib (NSC753686), talazoparib (NSC767125), rucaparib (NSC756644), sotorasib (NSC818433), MRTX-1133 (NSC836407), SN-38 (NSC673596), topotecan (NSC609699), epotoside (NSC141540), doxorubicin (NSC123127), gemcitabine (NSC613327), 5-fluorouracil (NSC19893), paclitaxel (NSC125973), vemurafenib (NSC761431), MSA-2 (NSC828583), SN-011 (NSC837082), adavosertib (NSC754352), prexasertib (NSC758257), carboplatin (NSC241240) and oxaliplatin (NSC266046), were obtained from the National Cancer Institute (NCI) Developmental Therapeutics Program Chemical Repository (21). The FDA-approved anticancer drug set is available from the Developmental Therapeutics Program at https://dtp.cancer.gov/organization/dscb/obtaining/. […] The stock solutions were prepared in dimethyl sulfoxide (DMSO, Sigma-Aldrich, St. Louis, MO, cat. D2650), except for the platinum compounds which were prepared in saline (Quality Biological, Gaithersburg, MD, cat. 114-055-101), at 800-fold the tested concentration and stored at -70 degrees C prior to their use. All drugs and investigational agents were tested over a range starting from a high concentration at or near the clinical Cmax and decreasing in half-log increments. If the clinical Cmax for an agent had not been determined, the highest concentration tested was 10 microM, except for SN-38, which was tested at a high concentration of 1 microM.
Cell Culture. All cells were maintained in an incubator at 37 degrees C and 5% CO2 with 95% humidity. The PDC lines were cultured according to standard operating procedures established by the NCI PDMR (https://pdmr.cancer.gov). Table 3 of the manuscript, lists the cell lines along with the number of the three cell types plated to form the mct-spheroids and media for tumor cell growth. After thawing, all PDC lines, except 997537-175-T-J1-PDC and 415267-285-R-J2-PDC, were cultured in Matrigel-coated flasks prepared with a working solution of 1X Ham's F-12 nutrient mix, without supplementation (Thermo Fisher Scientific, cat. 11765054), 100 U/mL penicillin-streptomycin (Thermo Fisher Scientific, cat. 15140122), and 2.5% Matrigel (Corning Inc., Corning, NY, cat. 354248) for the first three passages. The two PDC lines 997537-175-T-J1-PDC and 415267-285-R-J2-PDC were cultured on uncoated flasks. The 857933-349-R-J2-PDC line was cultured in 6C/Colon 1B media containing advanced DMEM/F-12 (Thermo Fisher Scientific, cat. 12634028), 10 mM HEPES (Thermo Fisher Scientific, cat. 15630080), 1X GlutaMAX supplement (Thermo Fisher Scientific, cat. 35050061), 0.1 mg/mL primocin (InvivoGen, San Diego, CA, cat. ant-pm-2), 10% defined fetal bovine serum, heat inactivated (HyClone Laboratories Inc., Logan, UT, cat. SH30070.03HI), 50% L-WRN conditioned media (ATCC, cat. CRL-3276), 1.25 mM N-Acetyl-L-cysteine (Sigma-Aldrich, cat. A9165), 10 mM nicotinamide (Sigma-Aldrich, cat. N0636), 1X B-27 supplement (Thermo Fisher Scientific, cat. 17504044), 1X N-2 supplement (Thermo Fisher Scientific, cat. […]
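Note: spheroids exposed to compounds for seven days.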

CC1COCCN1c1cc(-c2ccnn2C)c2ccnc(-c3ccn[nH]3)c2n1 (centres undefined)
0.0482 µM and 0.0437 µM and 0.0722 µM: IC50 (curve of compound)
active: viability, T/C (compound 0.316 µM) 5.52% and 4.67% and 10.7% | viability, T/C (compound 1 µM) 4.69% and 4.34% and 7.36% | viability, T/C (compound 3.16 µM) 4.26% and 2.97% and 6.64% | viability, T/C (compound 10 µM) 4.3% and 3.61% and 9.38%
inactive: viability, T/C (compound 0.0316 µM) 71.3% and 65.3% and 109% | viability, T/C (compound 0.1 µM) 13% and 10.7% and 26.4%

Cn1ncnc1[C@H]1c2n[nH]c(=O)c3cc(F)cc(c23)N[C@@H]1c1ccc(F)cc1 + Cc1cccc(N(C)C(=O)C2C(O)CCN2c2nc(C)cc(C(F)(F)F)c2C#N)c1
inactive: viability, T/C (second compound 0.0316 µM, first compound 0.000316 µM) 101% | viability, T/C (second compound 0.0316 µM, first compound 0.001 µM) 102% | viability, T/C (second compound 0.0316 µM, first compound 0.00316 µM) 104% | viability, T/C (second compound 0.0316 µM, first compound 0.01 µM) 106% | viability, T/C (second compound 0.0316 µM, first compound 0.0316 µM) 118% | viability, T/C (second compound 0.0316 µM, first compound 0.1 µM) 120% | viability, T/C (second compound 0.1 µM, first compound 0.000316 µM) 87.9% | viability, T/C (second compound 0.1 µM, first compound 0.001 µM) 99.4% | viability, T/C (second compound 0.1 µM, first compound 0.00316 µM) 113% | viability, T/C (second compound 0.1 µM, first compound 0.01 µM) 106% | viability, T/C (second compound 0.1 µM, first compound 0.0316 µM) 113% | viability, T/C (second compound 0.1 µM, first compound 0.1 µM) 119% | viability, T/C (second compound 0.316 µM, first compound 0.000316 µM) 90.3% | viability, T/C (second compound 0.316 µM, first compound 0.001 µM) 92.6% | viability, T/C (second compound 0.316 µM, first compound 0.00316 µM) 102% | viability, T/C (second compound 0.316 µM, first compound 0.01 µM) 115% | viability, T/C (second compound 0.316 µM, first compound 0.0316 µM) 145% | viability, T/C (second compound 0.316 µM, first compound 0.1 µM) 122% | viability, T/C (second compound 1 µM, first compound 0.000316 µM) 89% | viability, T/C (second compound 1 µM, first compound 0.001 µM) 105% | viability, T/C (second compound 1 µM, first compound 0.00316 µM) 107% | viability, T/C (second compound 1 µM, first compound 0.01 µM) 117% | viability, T/C (second compound 1 µM, first compound 0.0316 µM) 119% | viability, T/C (second compound 1 µM, first compound 0.1 µM) 111% | viability, T/C (second compound 3.16 µM, first compound 0.000316 µM) 101% | viability, T/C (second compound 3.16 µM, first compound 0.001 µM) 106% | viability, T/C (second compound 3.16 µM, first compound 0.00316 µM) 111% | viability, T/C (second compound 3.16 µM, first compound 0.01 µM) 113% | viability, T/C (second compound 3.16 µM, first compound 0.0316 µM) 103% | viability, T/C (second compound 3.16 µM, first compound 0.1 µM) 105% | viability, T/C (second compound 10 µM, first compound 0.000316 µM) 99.5% | viability, T/C (second compound 10 µM, first compound 0.001 µM) 92.8% | viability, T/C (second compound 10 µM, first compound 0.00316 µM) 95.8% | viability, T/C (second compound 10 µM, first compound 0.01 µM) 116% | viability, T/C (second compound 10 µM, first compound 0.0316 µM) 113% | viability, T/C (second compound 10 µM, first compound 0.1 µM) 113%
> 0.1 µM: IC50 (curve of first compound, second compound 0.0316 µM) | IC50 (curve of first compound, second compound 0.1 µM) | IC50 (curve of first compound, second compound 0.316 µM) | IC50 (curve of first compound, second compound 1 µM) | IC50 (curve of first compound, second compound 3.16 µM) | IC50 (curve of first compound, second compound 10 µM)

Source: PubChem BioAssay AID1963854 (Molecular Pharmacology Branch, DTP, NCI, 2024)
